Laboratory results as given in patent US20230192799A1, “CNP Variants and Conjugates Thereof” (BIOMARIN PHARMACEUTICAL INC., priority 2019, published 2023).
Numbered stars: 1 amine (or outer) side, 2 acyl side, 3 side chain; on linkers, the order of the positions; unused ones are H or OH. Bridge positions count the residues as written; N and C are the ends. Side chains are listed from the residue outwards. Peptide text beside a SMILES is read from it. * marks the point of attachment. ξ: configuration not given here. C18 diacid = O=C(O)CCCCCCCCCCCCCCCCC(=O)*; ξγGlu = O=C(O)C(CCC(=O)[*:2])N[*:1]; AEEA = NCCOCCOCC(=O)O

Columns and labels:
[1] = Stability of CNP variants by RP-HPLC, 10 days in PBS; format: physicochemical; conditions: for T0, % (% variant detected at T0): T0 (0 days); for T10, % (% variant detected at T10): T10 (10 days) in PBS, pH 7.4, at 37° C.
[2] = tested on: cGMP production in NIH3T3 cells and HEK293 cells; assay: cGMP stimulation assay (CatchPoint Cyclic-GMP Fluorescent Assay); format: cell-based; conditions: peptide at T0, 7-point dose curve 100 nM to 0.0064 nM
[3] = Stability of CNP variants or conjugates in human plasma (LC-MS/MS); format: in vitro ADME
Procedure: Stability of different CNP variants or CNP conjugates were tested for stability in human plasma over a 24 hour period. Briefly, a C18 fatty acid was fused to gamma glutamic acid using 2 OEG spacers (see e.g., Lau et al., J. Med. Chem 58:7370-7380, 2015). For the chromatography, Waters UPLC H-Class connected with BEH C18 1.7 um, 2.1×150 mm; Mobile Phase A: 1% DMSO 0.1% Formic Acid in Water; Mobile Phase B: 1% DMSO 0.1% Formic Acid in CAN. Mass Spectrometry was carried out using an AB Sciex QTRAP.
each CNP variant was prepared at 200 nM in Human Plasma Li Heparin and samples Incubated at 37° C. 5% CO2. The reaction was quenched at 0, 1, 2, 4, 8, 24 hours with 0.5M Sodium Citrate pH 4. Plasma proteins were precipitated with 0.2% Formic Acid in MeOH and samples prepared using WCX 96-well uElution plate and analyzed by LC-MS/MS 6500.
Stability of different conjugates was also analyzed at varying conditions. Briefly, the same protocol as above was used at 37° C. (control), 37° C.+0.5M NaCl, 37° C.+protease inhibitors or 4° C.

[4] = tested on: NPR2+/− rat chondrosarcoma cell model (heterozygous NPR2 knockout cells); assay: cGMP stimulation assay in NPR2 mutant RCS cells; format: cell-based
Procedure: To determine the effects of CNP on subjects with short stature resulting from NPR2 mutations, cellular models of NPR2 mutations were developed. […] Rat chondrosarcoma (RCS) cells having either a knockout of, or heterozygous loss of function mutations in, the NPR2 gene were made by RNP transfection into RCS cells using 125 ng NPR2 variants or wild-type NPR2 plasmid DNA transfected into RCS or HEK293 cells. Single cell clones were seeded and genotyped by Sanger sequencing.
The NPR2 clones were created by creating insertions and deletions in the first exon of NPR2 in RCS cells. […] NPR2 mutant cells were tested for activity in response to CNP administration by a cGMP stimulation assay using a Catch Point Cyclic-GMP Fluorescent Assay after treatment with 6 nM of Pro-Gly CNP37. RCS (rat chondrosarcoma) cells were seeded at 40,000 cells/well in RCS culture media: DMEM+10% FBS+1× Pen Strep.

[5] = tested on: mice deficient in Nf1 in type II collagen producing cells; conditions: daily injections; cited from earlier work
[6] = tested on: mouse model of Cardiofaciocutaneous syndrome using a Braf mutation (p.Q241R); conditions: in vivo; cited from earlier work

Compound	T0, % (% variant detected at T0) [1] [%]	T10, % (% variant detected at T10) [1] [%]	other results
CC[C@H](C)[C@@H]1NC(=O)[C@H](CCCNC(=N)N)NC(=O)[C@H](CC(=O)O)NC(=O)[C@H](CC(C)C)NC(=O)[C@H](CCCCN)NC(=O)[C@H](CC(C)C)NC(=O)CNC(=O)[C@H](Cc2ccccc2)NC(=O)[C@@H](NC(=O)CNC(=O)[C@H](CCCCN)NC(=O)[C@H](CO)NC(=O)[C@H](CC(C)C)NC(=O)CNC(=O)[C@H](CCCCN)NC(=O)[C@H](CCCCN)NC(=O)[C@H](CC(N)=O)NC(=O)[C@H](C)NC(=O)CNC(=O)[C@H](CCCCN)NC(=O)[C@H](Cc2ccc(O)cc2)NC(=O)[C@H](CCCCN)NC(=O)[C@H](CCCNC(=N)N)NC(=O)[C@H](C)NC(=O)[C@H](CC(N)=O)NC(=O)[C@@H]2CCCN2C(=O)[C@H](Cc2c[nH]cn2)NC(=O)[C@H](CCC(=O)O)NC(=O)[C@H](CCC(N)=O)NC(=O)CNC(=O)[C@@H]2CCCN2)CSSC[C@@H](C(=O)O)NC(=O)CNC(=O)[C@H](CC(C)C)NC(=O)CNC(=O)[C@H](CO)NC(=O)[C@H](CCSC)NC(=O)[C@H](CO)NC(=O)CNC1=O [Pro-Gly CNP37]	76.7	39.5	EC50 [2]: 1.7 nM; stability in human plasma at varying conditions ([3]; 37° C. (control), 37° C.+0.5M NaCl, 37° C.+protease inhibitors or 4° C. (FIG. 3)): greater stability compared to other variants; proteolysis in human plasma ([3]; human plasma, varying conditions (FIG. 3)): prone to proteolysis; cGMP readout ([4]; NPR2+/− rat chondrosarcoma cells, 6 nM of peptide (FIG. 4)): rescues cGMP readout
CC[C@H](C)[C@@H]1NC(=O)[C@H](CCCNC(=N)N)NC(=O)[C@H](CC(=O)O)NC(=O)[C@H](CC(C)C)NC(=O)[C@H](CCCCNC(=O)COCCOCCNC(=O)COCCOCCNC(=O)CCC(NC(=O)CCCCCCCCCCCCCCCCC(=O)O)C(=O)O)NC(=O)[C@H](CC(C)C)NC(=O)CNC(=O)[C@H](Cc2ccccc2)NC(=O)[C@@H](NC(=O)CNC(=O)[C@H](CCCNC(=N)N)NC(=O)[C@H](CO)NC(=O)[C@H](CC(C)C)NC(=O)CNC(=O)[C@H](CCCNC(=N)N)NC(=O)[C@H](CCCNC(=N)N)NC(=O)[C@H](CCC(N)=O)NC(=O)[C@H](C)NC(=O)CNC(=O)[C@H](CCCNC(=N)N)NC(=O)[C@H](Cc2ccc(O)cc2)NC(=O)[C@H](CCCNC(=N)N)NC(=O)[C@H](CCCNC(=N)N)NC(=O)[C@H](C)NC(=O)[C@H](CCC(N)=O)NC(=O)[C@@H]2CCCN2C(=O)[C@H](Cc2c[nH]cn2)NC(=O)[C@H](CCC(=O)O)NC(=O)[C@H](CCC(N)=O)NC(=O)CNC(=O)[C@@H]2CCCN2C(C)=O)CSSC[C@@H](C(=O)O)NC(=O)CNC(=O)[C@H](CC(C)C)NC(=O)CNC(=O)[C@H](CO)NC(=O)[C@H](CCSC)NC(=O)[C@H](CO)NC(=O)CNC1=O (stereo partly drawn) [lipidated conjugate] (Ac-PGQEHPQARRYRGAQRRGLSRGCFGLK([AEEA-AEEA-ξγGlu-C18 diacid])LDRIGSMSGLGC-OH; disulfide 23-39)	–	–	stability in plasma ([3]; human plasma, 200 nM, 37° C., over 24 hrs (FIG. 2)): improved stability in plasma compared to PEGylated or non-conjugated peptides
C-type natriuretic peptide [CNP]	–	–	rescue of NPR2 signaling ([4]; cell model of NPR2 haploinsufficiency, exogenous CNP): dose-dependent rescue; ERK phosphorylation [5]: decreased ERK phosphorylation; short stature [5]: corrected the short stature; body length [6]: increases in body length

More lines, main results first:

T0, % (% variant detected at T0) [1] [%]	T10, % (% variant detected at T10) [1] [%]	Compound	other results
83	47	PGQEHPNARKYKGANKKGLSKGCFGLKLDRIGSMSGLGC [CNP-5]	–
90	58	PGQEHPNARRYRGANRRGLSRGCFGLKLDRIGSMSGLGC [CNP-6]	–
77	53	PGQEHPNARRYRGANRRGLSRGCFGLKLDRIGSMSGLGC [CNP-7]	–
91	88	PGQEHPQARRYRGAQRRGLSRGCFGLKLDRIGSMSGLGC [CNP-8]	–
92	77	PGQEHPQARRYRGAQRRGLSRGCFGLKLDRIGSMSGLGC [CNP-9]	–
